Experimental data as given in patent US20240124427A1, “HYDROXYHETEROCYCLOALKANE-CARBAMOYL DERIVATIVES” (Idorsia Pharmaceuticals Ltd, priority 2021, published 2024).

Biological target: human Gal-3 (hGal-3) (Homo sapiens (Human), UniProt P17931)
Experiment: Competitive binding assay: biotinylated hGal-3 binding to microplate-adsorbed asialofetuin (ASF)
Details: Activity on hGal-3; mean values of several measurements; mixture of diastereomers measured where not separated
In short: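 Biotinylated human Gal-3 binding to plate-adsorbed asialofetuin, competed by compound, 3 h at 4 °C. Bound protein detected with streptavidin-peroxidase (1 h, 4 °C) and ABTS substrate. IC50 reported as mean of several measurements.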

Chain of human Gal-3 (hGal-3) (P17931 whole entry): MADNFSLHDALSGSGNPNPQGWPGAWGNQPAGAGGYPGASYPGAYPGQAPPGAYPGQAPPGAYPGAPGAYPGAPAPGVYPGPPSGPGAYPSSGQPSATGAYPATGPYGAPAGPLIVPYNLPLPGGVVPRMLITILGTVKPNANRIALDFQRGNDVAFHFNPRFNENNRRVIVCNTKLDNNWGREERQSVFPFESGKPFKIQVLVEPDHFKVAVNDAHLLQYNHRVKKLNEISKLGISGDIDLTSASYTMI

Compound	IC50
CO[C@@H]1[C@@H](n2cc(-c3cc(F)c(F)c(F)c3)nn2)[C@@H](O)[C@@H](CO)O[C@H]1C(=O)N(c1cc(Cl)cc(Cl)c1)[C@@H]1CN(C(C)=O)C[C@H]1O [Example 77, (2R,3R,4S,5R,6R)-N-((3R,4R)-1-acetyl-4-hydroxypyrrolidin-3-yl)-N-(3,5-dichlorophenyl)-5-hydroxy-6-(hydroxymethyl)-3-methoxy-4-(4-(3,4,5-trifluorophenyl)-1H-1,2,3-triazol-1-yl)tetrahydro-2H-pyran-2-carboxamide]	80 nM
CO[C@@H]1[C@@H](n2cc(-c3cc(F)c(F)c(F)c3)nn2)[C@@H](O)[C@@H](CO)O[C@H]1C(=O)N(c1cc(Br)cc(C#N)c1)[C@@H]1CN(C(C)=O)C[C@H]1O [Example 78, (2R,3R,4S,5R,6R)-N-((3R,4R)-1-acetyl-4-hydroxypyrrolidin-3-yl)-N-(3-bromo-5-cyanophenyl)-5-hydroxy-6-(hydroxymethyl)-3-methoxy-4-(4-(3,4,5-trifluorophenyl)-1H-1,2,3-triazol-1-yl)tetrahydro-2H-pyran-2-carboxamide]	71 nM
CO[C@@H]1[C@@H](n2cc(-c3ccc(Br)c(F)c3F)nn2)[C@@H](O)[C@@H](CO)O[C@H]1C(=O)N(c1cc(Cl)cc(Cl)c1)[C@@H]1CN(C(C)=O)C[C@H]1O [Example 80, (2R,3R,4S,5R,6R)-N-((3R,4R)-1-acetyl-4-hydroxypyrrolidin-3-yl)-4-(4-(4-bromo-2,3-difluorophenyl)-1H-1,2,3-triazol-1-yl)-N-(3,5-dichlorophenyl)-5-hydroxy-6-(hydroxymethyl)-3-methoxytetrahydro-2H-pyran-2-carboxamide]	31 nM

Further compounds by falling IC50, results first:

IC50	Compound
76 nM	CO[C@@H]1[C@@H](n2cc(-c3cc(F)c(F)c(F)c3)nn2)[C@@H](O)[C@@H](CO)O[C@H]1C(=O)N(c1cc(C)cc(Br)c1)[C@@H]1CN(C(C)=O)C[C@H]1O [Example 79, (2R,3R,4S,5R,6R)-N-((3R,4R)-1-acetyl-4-hydroxypyrrolidin-3-yl)-N-(3-bromo-5-methylphenyl)-5-hydroxy-6-(hydroxymethyl)-3-methoxy-4-(4-(3,4,5-trifluorophenyl)-1H-1,2,3-triazol-1-yl)tetrahydro-2H-pyran-2-carboxamide]
67 nM	CO[C@@H]1[C@@H](n2cc(-c3cc(F)c(Cl)c(F)c3)nn2)[C@@H](O)[C@@H](CO)O[C@H]1C(=O)N(c1cc(C)cc(Br)c1)[C@@H]1CN(C(C)=O)C[C@H]1O [Example 83, (2R,3R,4S,5R,6R)-N-((3R,4R)-1-acetyl-4-hydroxypyrrolidin-3-yl)-N-(3-bromo-5-methylphenyl)-4-(4-(4-chloro-3,5-difluorophenyl)-1H-1,2,3-triazol-1-yl)-5-hydroxy-6-(hydroxymethyl)-3-methoxytetrahydro-2H-pyran-2-carboxamide]
45 nM	CO[C@@H]1[C@@H](n2cc(-c3cc(F)c(C)c(F)c3)nn2)[C@@H](O)[C@@H](CO)O[C@H]1C(=O)N(c1cc(C)cc(Br)c1)[C@@H]1CN(C(C)=O)C[C@H]1O [Example 82, (2R,3R,4S,5R,6R)-N-((3R,4R)-1-acetyl-4-hydroxypyrrolidin-3-yl)-N-(3-bromo-5-methylphenyl)-4-(4-(3,5-difluoro-4-methylphenyl)-1H-1,2,3-triazol-1-yl)-5-hydroxy-6-(hydroxymethyl)-3-methoxytetrahydro-2H-pyran-2-carboxamide]
40 nM	CO[C@@H]1[C@@H](n2cc(-c3cc(F)c(C)c(F)c3)nn2)[C@@H](O)[C@@H](CO)O[C@H]1C(=O)N(c1cc(Br)cc(Br)c1)[C@@H]1CN(C(C)=O)C[C@H]1O [Example 81, (2R,3R,4S,5R,6R)-N-((3R,4R)-1-acetyl-4-hydroxypyrrolidin-3-yl)-N-(3,5-dibromophenyl)-4-(4-(3,5-difluoro-4-methylphenyl)-1H-1,2,3-triazol-1-yl)-5-hydroxy-6-(hydroxymethyl)-3-methoxytetrahydro-2H-pyran-2-carboxamide]
